{"source": "patent US5545639A", "about": "“Method of inhibiting transformed cells” (The United States of America as represented by the …, priority 1994, dated 1996)", "test_in_all_cases": "Dose response of growth, tumor cell line", "assay_type_in_all_cases": "cell-based", "key": {"A549/ATCC": {"tested_on": "A549/ATCC", "details": "Homo sapiens, non-small cell lung cancer", "description": "(§1) Indeed, 70% of the cell lines were shown not only to experience precluded growth, but cell death, when exposed to less then 100 μM of the active ingredient."}, "CCRF-CEM": {"tested_on": "CCRF-CEM", "details": "Homo sapiens, leukemia", "description": "as §1"}, "COLO 205": {"tested_on": "COLO 205", "details": "Homo sapiens, COLO 205, colon cancer", "description": "as §1"}, "DLD-A": {"tested_on": "DLD-A", "details": "Homo sapiens, colon cancer", "description": "as §1"}, "DMS 114": {"tested_on": "DMS 114", "details": "Homo sapiens, DMS 114, small cell lung cancer", "description": "as §1"}, "EKVX": {"tested_on": "EKVX", "details": "Homo sapiens, non-small cell lung cancer", "description": "as §1"}, "HCC-2998": {"tested_on": "HCC-2998", "details": "Homo sapiens, HCC-2998, colon cancer", "description": "as §1"}, "HCT-116": {"tested_on": "HCT-116", "details": "Homo sapiens, HCT-116, colon cancer", "description": "as §1"}, "HCT-15": {"tested_on": "HCT-15", "details": "Homo sapiens, HCT-15, colon cancer", "description": "as §1"}, "HL-60 (TB)": {"tested_on": "HL-60 (TB)", "details": "Homo sapiens, leukemia", "description": "as §1"}, "HOP-18": {"tested_on": "HOP-18", "details": "Homo sapiens, HOP-18, non-small cell lung cancer", "description": "as §1"}, "MCF7/ADR-RES": {"tested_on": "MCF7/ADR-RES", "details": "Homo sapiens, miscellaneous", "description": "as §1"}, "MCF7": {"tested_on": "MCF7", "details": "Homo sapiens, MCF7, miscellaneous", "description": "as §1"}, "MOLT-4": {"tested_on": "MOLT-4", "details": "Homo sapiens, MOLT-4, leukemia", "description": "as §1"}, "NCI-H226": {"tested_on": "NCI-H226", "details": "Homo sapiens, NCI-H226, non-small cell lung cancer", "description": "as §1"}, "NCI-H322M": {"tested_on": "NCI-H322M", "details": "Homo sapiens, non-small cell lung cancer", "description": "as §1"}, "OVCAR-3": {"tested_on": "OVCAR-3", "details": "Homo sapiens, OVCAR-3, ovarian cancer", "description": "as §1"}, "OVCAR-5": {"tested_on": "OVCAR-5", "details": "Homo sapiens, OVCAR-5, ovarian cancer", "description": "as §1"}, "SK-MEL-2": {"tested_on": "SK-MEL-2", "details": "Homo sapiens, SK-MEL-2, melanoma", "description": "as §1"}, "SK-MEL-5": {"tested_on": "SK-MEL-5", "details": "Homo sapiens, SK-MEL-5, melanoma", "description": "as §1"}, "SNB-75": {"tested_on": "SNB-75", "details": "Homo sapiens, SNB-75, CNS cancer", "description": "as §1"}, "SNB-78": {"tested_on": "SNB-78", "details": "Homo sapiens, SNB-78, CNS cancer", "description": "as §1"}, "SW-620": {"tested_on": "SW-620", "details": "Homo sapiens, SW-620, colon cancer", "description": "as §1"}, "UACC-62": {"tested_on": "UACC-62", "details": "Homo sapiens, UACC-62, melanoma", "description": "as §1"}, "UO-31": {"tested_on": "UO-31", "details": "Homo sapiens, UO-31, renal cancer", "description": "as §1"}, "[1]": {"details": "read-out: 50% Growth (Relative to Control)"}, "[2]": {"details": "read-out: No Growth (Relative to Control)"}}, "data": [{"smiles": "ClCc1ccc2ccc3ccc(CCl)nc3c2n1", "note": "[2,9-bis(chloromethyl)-1,10-phenanthroline]", "values": [{"measurement": "IC50", "setting": "A549/ATCC; [1]", "value": 5.14, "unit": "µM"}, {"measurement": "CC50", "setting": "A549/ATCC; read-out: 50% Loss (50% kill)", "value": "> 100", "unit": "µM"}, {"measurement": "IC100", "setting": "A549/ATCC; [2]", "value": "> 100", "unit": "µM"}, {"measurement": "IC50", "setting": "CCRF-CEM; [1]", "value": 1.8, "unit": "µM"}, {"measurement": "CC50", "setting": "CCRF-CEM; read-out: 50% Loss (50% kill)", "value": "> 100", "unit": "µM"}, {"measurement": "IC100", "setting": "CCRF-CEM; [2]", "value": 8.64, "unit": "µM"}, {"measurement": "IC50", "setting": "COLO 205; [1]", "value": 1.56, "unit": "µM"}, {"measurement": "CC50", "setting": "COLO 205; read-out: 50% Loss (50% kill)", "value": 5.54, "unit": "µM"}, {"measurement": "IC100", "setting": "COLO 205; [2]", "value": 2.94, "unit": "µM"}, {"measurement": "IC50", "setting": "DLD-A; [1]", "value": 1.48, "unit": "µM"}, {"measurement": "CC50", "setting": "DLD-A; read-out: 50% Loss (50% kill)", "value": 5.72, "unit": "µM"}, {"measurement": "IC100", "setting": "DLD-A; [2]", "value": 2.91, "unit": "µM"}, {"measurement": "IC50", "setting": "DMS 114; [1]", "value": 1.62, "unit": "µM"}, {"measurement": "IC100", "setting": "DMS 114; [2]", "value": 3.53, "unit": "µM"}, {"measurement": "IC50", "setting": "EKVX; [1]", "value": 28.1, "unit": "µM"}, {"measurement": "CC50", "setting": "EKVX; read-out: 50% Loss (50% kill)", "value": "> 100", "unit": "µM"}, {"measurement": "IC100", "setting": "EKVX; [2]", "value": "> 100", "unit": "µM"}, {"measurement": "IC50", "setting": "HCC-2998; [1]", "value": 1.56, "unit": "µM"}, {"measurement": "CC50", "setting": "HCC-2998; read-out: 50% Loss (50% kill)", "value": 6.18, "unit": "µM"}, {"measurement": "IC100", "setting": "HCC-2998; [2]", "value": 3.11, "unit": "µM"}, {"measurement": "IC50", "setting": "HCT-116; [1]", "value": 1.8, "unit": "µM"}, {"measurement": "CC50", "setting": "HCT-116; read-out: 50% Loss (50% kill)", "value": 8.31, "unit": "µM"}, {"measurement": "IC100", "setting": "HCT-116; [2]", "value": 3.87, "unit": "µM"}, {"measurement": "IC50", "setting": "HCT-15; [1]", "value": 1.95, "unit": "µM"}, {"measurement": "CC50", "setting": "HCT-15; read-out: 50% Loss (50% kill)", "value": "> 100", "unit": "µM"}, {"measurement": "IC100", "setting": "HCT-15; [2]", "value": 6.47, "unit": "µM"}, {"measurement": "IC50", "setting": "HL-60 (TB); [1]", "value": 1.8, "unit": "µM"}, {"measurement": "CC50", "setting": "HL-60 (TB); read-out: 50% Loss (50% kill)", "value": 23, "unit": "µM"}, {"measurement": "IC100", "setting": "HL-60 (TB); [2]", "value": 4.43, "unit": "µM"}, {"measurement": "IC50", "setting": "HOP-18; [1]", "value": 3.02, "unit": "µM"}, {"measurement": "CC50", "setting": "HOP-18; read-out: 50% Loss (50% kill)", "value": 31.2, "unit": "µM"}, {"measurement": "IC100", "setting": "HOP-18; [2]", "value": 9.71, "unit": "µM"}, {"measurement": "IC50", "setting": "MCF7/ADR-RES; [1]", "value": 1.93, "unit": "µM"}, {"measurement": "CC50", "setting": "MCF7/ADR-RES; read-out: 50% Loss (50% kill)", "value": "> 100", "unit": "µM"}, {"measurement": "IC100", "setting": "MCF7/ADR-RES; [2]", "value": 4.48, "unit": "µM"}, {"measurement": "IC50", "setting": "MCF7; [1]", "value": 0.564, "unit": "µM"}, {"measurement": "CC50", "setting": "MCF7; read-out: 50% Loss (50% kill)", "value": 8.88, "unit": "µM"}, {"measurement": "IC100", "setting": "MCF7; [2]", "value": 2.48, "unit": "µM"}, {"measurement": "IC50", "setting": "MOLT-4; [1]", "value": 1.73, "unit": "µM"}, {"measurement": "CC50", "setting": "MOLT-4; read-out: 50% Loss (50% kill)", "value": 9.34, "unit": "µM"}, {"measurement": "IC100", "setting": "MOLT-4; [2]", "value": 4.02, "unit": "µM"}, {"measurement": "IC50", "setting": "NCI-H226; [1]", "value": 3.06, "unit": "µM"}, {"measurement": "CC50", "setting": "NCI-H226; read-out: 50% Loss (50% kill)", "value": 68.3, "unit": "µM"}, {"measurement": "IC100", "setting": "NCI-H226; [2]", "value": 9.91, "unit": "µM"}, {"measurement": "IC50", "setting": "NCI-H322M; [1]", "value": 2.84, "unit": "µM"}, {"measurement": "CC50", "setting": "NCI-H322M; read-out: 50% Loss (50% kill)", "value": 29.2, "unit": "µM"}, {"measurement": "IC100", "setting": "NCI-H322M; [2]", "value": 8.41, "unit": "µM"}, {"measurement": "IC50", "setting": "OVCAR-3; [1]", "value": 1.75, "unit": "µM"}, {"measurement": "CC50", "setting": "OVCAR-3; read-out: 50% Loss (50% kill)", "value": 18.4, "unit": "µM"}, {"measurement": "IC100", "setting": "OVCAR-3; [2]", "value": 4.93, "unit": "µM"}, {"measurement": "IC50", "setting": "OVCAR-5; [1]", "value": 1.87, "unit": "µM"}, {"measurement": "CC50", "setting": "OVCAR-5; read-out: 50% Loss (50% kill)", "value": 6.63, "unit": "µM"}, {"measurement": "IC100", "setting": "OVCAR-5; [2]", "value": 3.52, "unit": "µM"}, {"measurement": "IC50", "setting": "SK-MEL-2; [1]", "value": 1.77, "unit": "µM"}, {"measurement": "CC50", "setting": "SK-MEL-2; read-out: 50% Loss (50% kill)", "value": 16.6, "unit": "µM"}, {"measurement": "IC100", "setting": "SK-MEL-2; [2]", "value": 4.81, "unit": "µM"}, {"measurement": "IC50", "setting": "SK-MEL-5; [1]", "value": 1.59, "unit": "µM"}, {"measurement": "CC50", "setting": "SK-MEL-5; read-out: 50% Loss (50% kill)", "value": 9.45, "unit": "µM"}, {"measurement": "IC100", "setting": "SK-MEL-5; [2]", "value": 3.88, "unit": "µM"}, {"measurement": "IC50", "setting": "SNB-75; [1]", "value": 1.72, "unit": "µM"}, {"measurement": "CC50", "setting": "SNB-75; read-out: 50% Loss (50% kill)", "value": 15.5, "unit": "µM"}, {"measurement": "IC100", "setting": "SNB-75; [2]", "value": 4.53, "unit": "µM"}, {"measurement": "IC50", "setting": "SNB-78; [1]", "value": 2.3, "unit": "µM"}, {"measurement": "CC50", "setting": "SNB-78; read-out: 50% Loss (50% kill)", "value": "> 100", "unit": "µM"}, {"measurement": "IC100", "setting": "SNB-78; [2]", "value": 6.4, "unit": "µM"}, {"measurement": "IC50", "setting": "SW-620; [1]", "value": 3.18, "unit": "µM"}, {"measurement": "CC50", "setting": "SW-620; read-out: 50% Loss (50% kill)", "value": "> 100", "unit": "µM"}, {"measurement": "IC100", "setting": "SW-620; [2]", "value": 14.1, "unit": "µM"}, {"measurement": "IC50", "setting": "UACC-62; [1]", "value": 1.18, "unit": "µM"}, {"measurement": "CC50", "setting": "UACC-62; read-out: 50% Loss (50% kill)", "value": 5.07, "unit": "µM"}, {"measurement": "IC100", "setting": "UACC-62; [2]", "value": 2.45, "unit": "µM"}, {"measurement": "IC50", "setting": "UO-31; [1]", "value": 1.69, "unit": "µM"}, {"measurement": "CC50", "setting": "UO-31; read-out: 50% Loss (50% kill)", "value": 6.08, "unit": "µM"}, {"measurement": "IC100", "setting": "UO-31; [2]", "value": 3.21, "unit": "µM"}]}]}
